Data taken from patent US5096924A, “Anticancer antibiotic MI43-37F11 substance” (501 Azidan Hojin Biseibutsu Kagaku Kenkyu Kai, priority 1989, dated 1992).
≈ marks a conversion by molar mass, not a printed value.

Experiments:
mouse Leukemia P388 = assay: Inhibition of proliferation of mouse leukemia P388 cells; format: cell-based; details: 48 h; mouse leukemia P388, 37° C, 2 days
Description: (§1) A cell suspension containing cells of mouse Leukemia L1210, mouse Leukemia P388, mouse Leukemia EL4, mouse IMC carcinoma or human lung cancer LX-1 cells in a culture medium containing 10% calf serum at a cell density of 1 x 10^5 cells/ml was prepared, and 200 μl-portion of the cell suspension so prepared was placed in a microplate and then added with a solution of MI43-37F11 substance at varying concentrations (dissolved in a mixture of water and dimethylsulfoxide (95:5)). The cell suspension containing the test compound added was subsequently incubated at 37° C for 2 days (but 5 days for the LX-1 cells).
(§2) After the incubation, the number of the cells of the L1210 cells, P388 cells, the EL4 cells and the IMC carcinoma cells in the treated groups was counted by means of Coulter-counter. The control group (untreated) of the cell suspension to which the test compound was not added was incubated in the same way as above and then the number of the cells was similarly counted.
(§3) Rate (%) of inhibition of the cell proliferation of the treated group against that of the control group (untreated) was evaluated. […]

Ehrlich carcinoma = assay: Therapeutic treatment of Ehrlich carcinoma-bearing mice by intraperitoneal injection; format: in vivo, ICR mice
Description: (a) Experiments for therapeutic treatment of Ehrlich carcinoma-bearing mice were conducted by intraperitoneal injection of the antibiotic MI43-37F11 substance. Thus, a cell suspension of Ehrlich ascites carcinoma cells was subcutaneously inoculated at the abdominal region of ICR mice (female, 6-week old, 4 mice in each treated group) so that the number of the carcinoma cells as subcutaneously transplanted was 2×10^6 cells per mouse. After the transplantation of the carcinoma cells, the antibiotic MI43-37F11 substance was administered by intraperitoneal injection to the mice having the transplanted and firmly grown carcinoma cells, according to the following schedule of administration. Namely, MI43-37F11 substance was administered at a dosage of 10 mg/kg or 2.5 mg/kg or 0.625 mg/kg only once on the 7th day after the transplantation of the cells, or alternatively MI43-37F11 substance was administered at a dosage of 2.5 mg/kg or 1.25 mg/kg or 0.625 mg/kg, totally five times but every other day from the 7th day to the 14th day after the transplantation of the carcinoma cells. The administration of MI43-37F11 substance was not made but intraperitoneal injection of physiological saline was made in the mice of the control group (untreated) (8 mice in each control group).
On the 15th day after the transplantation of the carcinoma cells, the mass of the tumor (carcinoma) was surgically removed out of each mouse and weighed. The rate of the reduction in the weight of the tumor (carcinoma) obtained from the group of mice treated with MI43-37F11 substance was evaluated in term of the rate (%) of inhibition, with such an assumption that the weight of the tumor obtained from the control group of mice was amounting to 100. In other words, the rate (%) of inhibition to the growth of Ehrlich carcinoma was calculated according to the following equation [formula] where C means the weight of the tumor in the control group of mice (untreated) and T means the weight of the tumor of the treated group of mice.

mouse Leukemia EL4 = assay: Inhibition of proliferation of mouse leukemia EL4 cells; format: cell-based; details: 48 h; mouse leukemia EL4, 37° C, 2 days
Description: as §1, §2, §3

interleukin-1 = assay: Enhancement of the production of interleukin-1 in vivo (uptake of 3H-TdR by D10.G4.1 cells); parameters: species or system CDF1 mice
Description: (5) Experiments for estimation of the activity of the antibiotic MI43-37F11 substance to enhance the production of interleukin-1 in vivo was conducted by the following procedure. Thus, MI43-37F11 substance was orally administered to CDF1 mice (female, 6-week old) B at a dosage of 25 mg/kg. One day, 3 days, 5 days and […] the administration, peritoneal exudate cells (PEC) and spleen cells were respectively harvested from the mice of the treated group. The peritoneal exudate cells and spleen cells as harvested were independently divided into two classes, namely the class of the adherent cell which was adherent in its nature to the wall of a plastic dish and the class of the non-adherent cell. The whole peritoneal exudate cells (PEC), the adherent cells of PEC and the adherent cells of the spleen cell were separately suspended into aliquots of a culture medium to give a cell concentrations of 1×10^6 cells/well, 2×10^6 cells/well and 2.5×10^6 cells/well, respectively. After the incubation for 24 hours, the supernatants were collected by filtration of the incubated culture media and then assayed for their activity of interleukin-1 (IL-1) according to the method of Jonathan K. et al (see "Lymphokine Research" 3 (4), 175-182, (1984)). Namely, 100 μl of each supernatant obtained as above and Concanavalin A (to a final concentration of 2.5 μg/ml) were added to 100 μl of a cell suspension containing 1 x 10^5 cells/m(of D10.G4.1. cells which will proliferate in the presence of Concanavalin A plus interleukin-1 when the latter compounds are given. The resulting mixture was then incubated for 48 hours and then added with ^3 H-thymidine (^3 H-TdR), followed by further incubation for 16 hours. After this, the rate of uptake of ^3 H-TdR by the D10.G4.1. cells was determined in term of the radio-activity unit of c.p.m. The rate of uptake of ^3 H-TdR in the control group of mice (untreated) was also determined in the same manner as above.

mouse Leukemia L1210 = assay: Inhibition of proliferation of mouse leukemia L1210 cells; format: cell-based; details: 48 h; mouse leukemia L1210, 37° C, 2 days
Description: as §1, §2, §3

SMILES: COc1cc(O)c2c(=O)oc(CO)cc2c1 [MI43-37F11 substance]
- IC50 (mouse Leukemia P388): 50 µg/mL (≈ 225 µM)
- Rate (%) of Inhibition (Ehrlich carcinoma; 0.625 mg/kg i.p., 7th day (only once), tumor weight on 15th day): 12%
- Rate (%) of Inhibition (Ehrlich carcinoma; 0.625 mg/kg/day i.p., 7th day to 14th day, every second day, totally 5 times): 30%
- Rate (%) of Inhibition (Ehrlich carcinoma; 1.25 mg/kg/day i.p., 7th day to 14th day, every second day, totally 5 times): 67%
- Rate (%) of Inhibition (Ehrlich carcinoma; 2.5 mg/kg i.p., 7th day (only once), tumor weight on 15th day): 51%
- Rate (%) of Inhibition (Ehrlich carcinoma; 2.5 mg/kg/day i.p., 7th day to 14th day, every second day, totally 5 times): 60%
- Rate (%) of Inhibition (Ehrlich carcinoma; 10 mg/kg i.p., 7th day (only once), tumor weight on 15th day): 59%
- IC50 (mouse Leukemia EL4): 52 µg/mL (≈ 234 µM)
- Uptake of 3H-TdR, T/C % (interleukin-1; adherent cell in PEC, 1 day after 25 mg/kg oral): 165.8%
- Uptake of 3H-TdR, c.p.m. ± S.D. (interleukin-1; adherent cell in PEC, 1 day after 25 mg/kg oral, control 10561 ± 1241, **): 17510 ± 810 c.p.m.
- Uptake of 3H-TdR, T/C % (interleukin-1; adherent cell in PEC, 3 days after 25 mg/kg oral): 131.7%
- Uptake of 3H-TdR, c.p.m. ± S.D. (interleukin-1; adherent cell in PEC, 3 days after 25 mg/kg oral, control 10561 ± 1241, **): 13912 ± 1367 c.p.m.
- Uptake of 3H-TdR, T/C % (interleukin-1; adherent cell in PEC, 5 days after 25 mg/kg oral): 253.4%
- Uptake of 3H-TdR, c.p.m. ± S.D. (interleukin-1; adherent cell in PEC, 5 days after 25 mg/kg oral, control 10561 ± 1241, ***): 26759 ± 3601 c.p.m.
- Uptake of 3H-TdR, T/C % (interleukin-1; adherent cell in PEC, 7 days after 25 mg/kg oral): 167.0%
- Uptake of 3H-TdR, c.p.m. ± S.D. (interleukin-1; adherent cell in PEC, 7 days after 25 mg/kg oral, control 10561 ± 1241, *): 17639 ± 2699 c.p.m.
- Uptake of 3H-TdR, T/C % (interleukin-1; adherent cell in spleen cells, 1 day after 25 mg/kg oral): 83.3%
- Uptake of 3H-TdR, c.p.m. ± S.D. (interleukin-1; adherent cell in spleen cells, 1 day after 25 mg/kg oral, control 2091 ± 481): 1741 ± 352 c.p.m.
- Uptake of 3H-TdR, T/C % (interleukin-1; adherent cell in spleen cells, 3 days after 25 mg/kg oral): 232.8%
- Uptake of 3H-TdR, c.p.m. ± S.D. (interleukin-1; adherent cell in spleen cells, 3 days after 25 mg/kg oral, control 2091 ± 481, **): 4868 ± 497 c.p.m.
- Uptake of 3H-TdR, T/C % (interleukin-1; adherent cell in spleen cells, 5 days after 25 mg/kg oral): 102.3%
- Uptake of 3H-TdR, c.p.m. ± S.D. (interleukin-1; adherent cell in spleen cells, 5 days after 25 mg/kg oral, control 2091 ± 481): 2140 ± 121 c.p.m.
- Uptake of 3H-TdR, T/C % (interleukin-1; adherent cell in spleen cells, 7 days after 25 mg/kg oral): 114.1%
- Uptake of 3H-TdR, c.p.m. ± S.D. (interleukin-1; adherent cell in spleen cells, 7 days after 25 mg/kg oral, control 2091 ± 481): 2385 ± 134 c.p.m.
- enhance the in vivo production of interleukin-1 (interleukin-1; summary in words): effective
- Uptake of 3H-TdR, T/C % (interleukin-1; whole PEC, 1 day after 25 mg/kg oral): 61.3%
- Uptake of 3H-TdR, c.p.m. ± S.D. (interleukin-1; whole PEC, 1 day after 25 mg/kg oral, control 7166 ± 752, **): 4393 ± 397 c.p.m.
- Uptake of 3H-TdR, T/C % (interleukin-1; whole PEC, 3 days after 25 mg/kg oral): 83.6%
- Uptake of 3H-TdR, c.p.m. ± S.D. (interleukin-1; whole PEC, 3 days after 25 mg/kg oral, control 7166 ± 752): 5988 ± 602 c.p.m.
- Uptake of 3H-TdR, T/C % (interleukin-1; whole PEC, 5 days after 25 mg/kg oral): 391.7%
- Uptake of 3H-TdR, c.p.m. ± S.D. (interleukin-1; whole PEC, 5 days after 25 mg/kg oral, control 7166 ± 752, ***): 28072 ± 1174 c.p.m.
- Uptake of 3H-TdR, T/C % (interleukin-1; whole PEC, 7 days after 25 mg/kg oral): 54.5%
- IC50 (mouse Leukemia L1210): 50 µg/mL (≈ 225 µM)
